What was measured:
Assay type in all cases: in vivo
Botrytis cinerea = assay: Test A: preventive spray on tomato seedlings, tomato Botrytis, visual disease rating; details: 200 ppm test suspension
Experimental: General protocol for preparing test suspensions for Tests A-I: the test compounds were first dissolved in acetone in an amount equal to 3% of the final volume and then suspended at the desired concentration (in ppm) in acetone and purified water (50/50 mix by volume) containing 250 ppm of the surfactant Trem® 014 (polyhydric alcohol esters). The resulting test suspensions were then used in Tests A-I. Each test was conducted in triplicate, and the results were averaged. Spraying a 200 ppm test suspension to the point of run-off on the test plants was the equivalent of a rate of about 800 g/ha. Unless otherwise indicated, the rating values indicate a 200 ppm test suspension was used. (An asterisk “*” next to the rating value indicates a 40 ppm test suspension was used.) The test suspension was sprayed to the point of run-off on tomato seedlings. The following day the seedlings were inoculated with a spore suspension of Botrytis cinerea (the causal agent of tomato Botrytis) and incubated in saturated atmosphere at 20° C. for 48 h, and then moved to a growth chamber at 24° C. for 3 additional days, after which time visual disease ratings were made. Results for Tests A-I are given in Table A. In the Table, a rating of 100 indicates 100% disease control and a rating of 0 indicates no disease control (relative to the controls). A hyphen (-) indicates no test results.

Alternaria solani = assay: Test B: preventive spray on tomato seedlings, tomato early blight, visual disease rating; details: 200 ppm test suspension
Experimental: General protocol for preparing test suspensions for Tests A-I: the test compounds were first dissolved in acetone in an amount equal to 3% of the final volume and then suspended at the desired concentration (in ppm) in acetone and purified water (50/50 mix by volume) containing 250 ppm of the surfactant Trem® 014 (polyhydric alcohol esters). The resulting test suspensions were then used in Tests A-I. Each test was conducted in triplicate, and the results were averaged. Spraying a 200 ppm test suspension to the point of run-off on the test plants was the equivalent of a rate of about 800 g/ha. Unless otherwise indicated, the rating values indicate a 200 ppm test suspension was used. (An asterisk “*” next to the rating value indicates a 40 ppm test suspension was used.) The test suspension was sprayed to the point of run-off on tomato seedlings. The following day the seedlings were inoculated with a spore suspension of Alternaria solani (the causal agent of tomato early blight) and incubated in a saturated atmosphere at 27° C. for 48 h, and then moved to a growth chamber at 20° C. for 5 days, after which time visual disease ratings were made. Results for Tests A-I are given in Table A. In the Table, a rating of 100 indicates 100% disease control and a rating of 0 indicates no disease control (relative to the controls). A hyphen (-) indicates no test results.

Septoria nodorum = assay: Test E: preventive spray on wheat seedlings, Septoria glume blotch, visual disease rating; details: 200 ppm test suspension, preventive spray
Experimental: General protocol for preparing test suspensions for Tests A-I: the test compounds were first dissolved in acetone in an amount equal to 3% of the final volume and then suspended at the desired concentration (in ppm) in acetone and purified water (50/50 mix by volume) containing 250 ppm of the surfactant Trem® 014 (polyhydric alcohol esters). The resulting test suspensions were then used in Tests A-I. Each test was conducted in triplicate, and the results were averaged. Spraying a 200 ppm test suspension to the point of run-off on the test plants was the equivalent of a rate of about 800 g/ha. Unless otherwise indicated, the rating values indicate a 200 ppm test suspension was used. (An asterisk “*” next to the rating value indicates a 40 ppm test suspension was used.) The test suspension was sprayed to the point of run-off on wheat seedlings. The following day the seedlings were inoculated with a spore suspension of Septoria nodorum (the causal agent of Septoria glume blotch) and incubated in a saturated atmosphere at 24° C. for 48 h, and then moved to a growth chamber at 20° C. for 9 days, after which time visual disease ratings were made. Results for Tests A-I are given in Table A. In the Table, a rating of 100 indicates 100% disease control and a rating of 0 indicates no disease control (relative to the controls). A hyphen (-) indicates no test results.

Septoria tritici = assay: Test F: preventive spray on wheat seedlings, wheat leaf blotch, visual disease rating; details: Zymoseptoria tritici, 200 ppm test suspension
Experimental: General protocol for preparing test suspensions for Tests A-I: the test compounds were first dissolved in acetone in an amount equal to 3% of the final volume and then suspended at the desired concentration (in ppm) in acetone and purified water (50/50 mix by volume) containing 250 ppm of the surfactant Trem® 014 (polyhydric alcohol esters). The resulting test suspensions were then used in Tests A-I. Each test was conducted in triplicate, and the results were averaged. Spraying a 200 ppm test suspension to the point of run-off on the test plants was the equivalent of a rate of about 800 g/ha. Unless otherwise indicated, the rating values indicate a 200 ppm test suspension was used. (An asterisk “*” next to the rating value indicates a 40 ppm test suspension was used.) The test suspension was sprayed to the point of run-off on wheat seedlings. The following day the seedlings were inoculated with a spore suspension of Septoria tritici (the causal agent of wheat leaf blotch) and incubated in saturated atmosphere at 24° C. for 48 h. and then the seedlings were moved to a growth chamber at 20° C. for 19 additional days, after which time visual disease ratings were made. Results for Tests A-I are given in Table A. In the Table, a rating of 100 indicates 100% disease control and a rating of 0 indicates no disease control (relative to the controls). A hyphen (-) indicates no test results.

[1] = test system: Puccinia recondita f. sp. tritici; assay: Test H: preventive spray on wheat seedlings, wheat leaf rust, visual disease rating; details: 200 ppm test suspension
Experimental: General protocol for preparing test suspensions for Tests A-I: the test compounds were first dissolved in acetone in an amount equal to 3% of the final volume and then suspended at the desired concentration (in ppm) in acetone and purified water (50/50 mix by volume) containing 250 ppm of the surfactant Trem® 014 (polyhydric alcohol esters). The resulting test suspensions were then used in Tests A-I. Each test was conducted in triplicate, and the results were averaged. Spraying a 200 ppm test suspension to the point of run-off on the test plants was the equivalent of a rate of about 800 g/ha. Unless otherwise indicated, the rating values indicate a 200 ppm test suspension was used. (An asterisk “*” next to the rating value indicates a 40 ppm test suspension was used.) The test suspension was sprayed to the point of run-off on wheat seedlings. The following day the seedlings were inoculated with a spore suspension of Puccinia recondita f. sp. tritici (the causal agent of wheat leaf rust) and incubated in a saturated atmosphere at 20° C. for 24 h, and then moved to a growth chamber at 20° C. for 6 days, after which time visual disease ratings were made. Results for Tests A-I are given in Table A. In the Table, a rating of 100 indicates 100% disease control and a rating of 0 indicates no disease control (relative to the controls). A hyphen (-) indicates no test results.

SMILES | pest or weed control at 200 ppm (Botrytis cinerea) | Test B rating (% disease control) (Alternaria solani) | Test E rating (% disease control) (Septoria nodorum) | pest or weed control at 200 ppm (Septoria tritici) | pest or weed control at 200 ppm [1]
Cc1nn(C)c(Nc2c(F)cccc2F)c1-c1ccc(F)cc1Cl [Compound 2, 4-(2-chloro-4-fluorophenyl)-N-(2,6-difluorophenyl)-1,3-dimethyl-1H-pyrazol-5-amine] | 100% | 100% | 87% | 100% | 99%
Cc1nn(C)c(Nc2ccccc2F)c1-c1ccc(F)cc1Cl [Compound 1, 4-(2-chloro-4-fluorophenyl)-N-(2-fluorophenyl)-1,3-dimethyl-1H-pyrazol-5-amine] | 99% | 93% | 0% | 100% | 99%
Cc1nn(C)c(Nc2c(F)cccc2Cl)c1-c1ccc(F)cc1Cl [Compound 3, 4-(2-chloro-4-fluorophenyl)-N-(2-chloro-6-fluorophenyl)-1,3-dimethyl-1H-pyrazol-5-amine] | 100% | 100% | 99% | 100% | 100%

Reference: patent US10015966B2, “Fungicidal pyrazole mixtures” (E I DU PONT DE NEMOURS AND COMPANY, priority 2012, dated 2018)
